Calls of active or inactive are those of the source. No cut-off for these calls is given here.
How the values were obtained:
[1] = Drug excretion in fasted male Sprague-Dawley rat at 5 mg/kg, po measured for 24 hrs by LC-MS/MS analysis; format: ADME, organism-based; conditions: in vivo, read-out: Drug excretion
[2] = target: T1, 5-hydroxytryptamine receptor 4 (Homo sapiens, UniProt Q13639); assay: Agonist activity at full-length human 5-HT4R stably expressed in HEK293 cells assessed as increase in intracellular cAMP level incubated for 30 mins under dark condition by reporter gene assay; format: functional, cell-based
T1 sequence (Q13639 whole entry): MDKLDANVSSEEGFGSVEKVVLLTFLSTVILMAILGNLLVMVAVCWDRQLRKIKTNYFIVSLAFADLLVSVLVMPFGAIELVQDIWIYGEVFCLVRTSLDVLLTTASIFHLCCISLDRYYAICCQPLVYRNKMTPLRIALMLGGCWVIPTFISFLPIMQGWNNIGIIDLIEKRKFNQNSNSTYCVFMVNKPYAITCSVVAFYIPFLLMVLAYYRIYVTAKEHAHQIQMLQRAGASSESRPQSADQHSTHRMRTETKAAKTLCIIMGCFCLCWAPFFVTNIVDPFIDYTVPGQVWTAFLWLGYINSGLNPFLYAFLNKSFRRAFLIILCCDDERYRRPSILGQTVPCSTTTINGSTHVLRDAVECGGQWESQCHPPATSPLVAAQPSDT

[3] = Metabolic stability in mouse liver microsomes assessed as intrinsic clearance measured per mg protein at 10 uM measured up to 60 mins in presence of NADPH by LC-MS/MS analysis; format: ADME, Microsome; conditions: read-out: CLH
[4] = target: 5-hydroxytryptamine receptor 7 (Homo sapiens, UniProt P34969); assay: Inhibition of 5-HT7R (unknown origin)
Chain of 5-hydroxytryptamine receptor 7 (P34969 whole entry): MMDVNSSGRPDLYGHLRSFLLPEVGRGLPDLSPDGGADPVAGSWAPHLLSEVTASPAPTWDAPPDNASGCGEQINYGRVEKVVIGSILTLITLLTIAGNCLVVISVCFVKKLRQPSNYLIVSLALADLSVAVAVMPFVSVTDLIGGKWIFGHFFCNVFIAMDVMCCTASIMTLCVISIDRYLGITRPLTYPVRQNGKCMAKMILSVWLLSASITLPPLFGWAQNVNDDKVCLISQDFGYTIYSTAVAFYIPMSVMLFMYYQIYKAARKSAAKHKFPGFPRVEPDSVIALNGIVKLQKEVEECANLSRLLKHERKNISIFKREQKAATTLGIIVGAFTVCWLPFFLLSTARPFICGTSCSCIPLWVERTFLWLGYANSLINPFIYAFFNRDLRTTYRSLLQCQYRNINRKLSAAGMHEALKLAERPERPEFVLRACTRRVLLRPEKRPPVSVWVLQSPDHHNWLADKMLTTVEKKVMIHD

[5] = Metabolic stability in human liver microsomes assessed as half life at 10 uM measured up to 60 mins in presence of NADPH by LC-MS/MS analysis; format: ADME, Microsome
[6] = target: T2, 5-hydroxytryptamine receptor 1A (Homo sapiens, UniProt P08908); assay: Inhibition of 5-HT1AR (unknown origin)
T2 sequence (P08908 whole entry): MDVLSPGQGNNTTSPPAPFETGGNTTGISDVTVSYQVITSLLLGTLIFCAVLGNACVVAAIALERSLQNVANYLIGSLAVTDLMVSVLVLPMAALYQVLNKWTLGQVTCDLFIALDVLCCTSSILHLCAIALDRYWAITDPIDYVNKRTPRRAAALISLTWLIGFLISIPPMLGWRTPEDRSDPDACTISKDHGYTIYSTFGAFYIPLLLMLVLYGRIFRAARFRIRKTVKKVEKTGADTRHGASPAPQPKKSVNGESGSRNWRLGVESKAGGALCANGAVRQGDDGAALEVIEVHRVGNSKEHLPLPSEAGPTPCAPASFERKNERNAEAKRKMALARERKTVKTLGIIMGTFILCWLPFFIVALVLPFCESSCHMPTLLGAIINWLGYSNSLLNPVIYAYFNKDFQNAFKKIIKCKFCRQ

[7] = target: Voltage-gated inwardly rectifying potassium channel KCNH2 (Homo sapiens, UniProt Q12809); assay: Inhibition of hERG stably expressed in HEK293 cells by patch-clamp method; format: toxicity, cell-based
Chain of Voltage-gated inwardly rectifying potassium channel KCNH2 (Q12809 whole entry): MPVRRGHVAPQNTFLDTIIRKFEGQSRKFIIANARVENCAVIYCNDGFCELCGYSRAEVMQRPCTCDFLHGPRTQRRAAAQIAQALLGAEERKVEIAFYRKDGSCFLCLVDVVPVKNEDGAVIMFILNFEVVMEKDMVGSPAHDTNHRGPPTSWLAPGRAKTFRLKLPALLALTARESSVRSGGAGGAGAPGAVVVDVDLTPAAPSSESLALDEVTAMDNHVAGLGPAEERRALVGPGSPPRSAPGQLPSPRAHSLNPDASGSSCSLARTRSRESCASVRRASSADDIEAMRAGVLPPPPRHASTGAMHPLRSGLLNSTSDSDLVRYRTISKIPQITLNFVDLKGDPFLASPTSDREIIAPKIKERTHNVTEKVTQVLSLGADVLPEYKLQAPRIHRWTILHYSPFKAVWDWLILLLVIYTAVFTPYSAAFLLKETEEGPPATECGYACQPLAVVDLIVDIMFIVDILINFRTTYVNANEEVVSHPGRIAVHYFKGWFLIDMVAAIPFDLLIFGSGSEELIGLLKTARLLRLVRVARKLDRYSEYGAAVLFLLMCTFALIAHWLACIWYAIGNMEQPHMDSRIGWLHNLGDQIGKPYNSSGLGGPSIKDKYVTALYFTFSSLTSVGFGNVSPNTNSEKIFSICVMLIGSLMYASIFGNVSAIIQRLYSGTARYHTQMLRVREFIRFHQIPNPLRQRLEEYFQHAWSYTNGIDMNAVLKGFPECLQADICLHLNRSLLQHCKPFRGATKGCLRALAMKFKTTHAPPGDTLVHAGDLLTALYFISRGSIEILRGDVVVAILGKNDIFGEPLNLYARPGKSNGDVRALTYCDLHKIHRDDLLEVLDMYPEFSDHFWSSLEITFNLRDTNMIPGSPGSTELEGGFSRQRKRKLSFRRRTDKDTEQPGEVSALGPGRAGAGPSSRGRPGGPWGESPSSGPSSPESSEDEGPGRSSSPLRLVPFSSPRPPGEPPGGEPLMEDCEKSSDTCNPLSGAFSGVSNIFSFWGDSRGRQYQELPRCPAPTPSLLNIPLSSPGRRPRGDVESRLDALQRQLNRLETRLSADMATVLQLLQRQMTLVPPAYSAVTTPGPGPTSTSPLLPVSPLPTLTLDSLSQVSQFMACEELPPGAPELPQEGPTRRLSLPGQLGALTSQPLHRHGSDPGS

[8] = Metabolic stability in rat liver microsomes assessed as intrinsic clearance measured per mg protein at 10 uM measured up to 60 mins in presence of NADPH by LC-MS/MS analysis; format: ADME, Microsome; conditions: read-out: CLH
[9] = target: T1, 5-hydroxytryptamine receptor 4; assay: Inhibition of 5-HT4R (unknown origin)
[10] = target: 5-hydroxytryptamine receptor 2A (Homo sapiens, UniProt P28223); assay: Inhibition of 5-HT2AR (unknown origin)
Chain of 5-hydroxytryptamine receptor 2A (P28223 whole entry): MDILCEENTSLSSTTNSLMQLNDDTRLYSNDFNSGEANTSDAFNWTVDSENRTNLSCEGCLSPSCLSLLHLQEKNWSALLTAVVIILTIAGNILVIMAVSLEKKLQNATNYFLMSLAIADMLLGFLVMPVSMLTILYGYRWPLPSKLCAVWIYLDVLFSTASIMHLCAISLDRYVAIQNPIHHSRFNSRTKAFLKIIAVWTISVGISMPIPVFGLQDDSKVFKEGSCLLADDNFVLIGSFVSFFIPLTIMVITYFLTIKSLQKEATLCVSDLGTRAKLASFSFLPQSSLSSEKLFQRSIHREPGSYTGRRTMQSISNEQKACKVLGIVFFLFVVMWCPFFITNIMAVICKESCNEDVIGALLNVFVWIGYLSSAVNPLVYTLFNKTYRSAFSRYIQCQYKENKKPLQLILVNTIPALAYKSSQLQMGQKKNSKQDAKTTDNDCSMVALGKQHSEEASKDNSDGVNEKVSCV

[11] = Permeability of compound assessed as compound recovery at 10 uM incubated for 4 hrs by PAMPA; format: ADME; conditions: read-out: Drug recovery
[12] = Stability in SIF at pH 6.8 assessed as half life by LC-MS/MS analysis; format: physicochemical
[13] = target: T1, 5-hydroxytryptamine receptor 4; assay: Displacement of [3H]-GR113808 from full-length human 5-HT4R stably expressed in HEK293 cell membrane by MicroBeta2 Reader analysis; format: cell membranes
[14] = Stability in mouse plasma assessed as half life measured up to 120 mins by LC-MS/MS analysis; format: ADME, cell-free
Mus musculus [15] = assay: Anti-constipation effect in mouse assessed as increase in fecal water content at 3 to 10 mg/kg, po measured after 1 hr; format: functional, organism-based; conditions: dose 3-10 mg/kg
[16] = target: 5-hydroxytryptamine receptor 1B (Homo sapiens, UniProt P28222); assay: Inhibition of 5-HT1BR (unknown origin)
Chain of 5-hydroxytryptamine receptor 1B (P28222 whole entry): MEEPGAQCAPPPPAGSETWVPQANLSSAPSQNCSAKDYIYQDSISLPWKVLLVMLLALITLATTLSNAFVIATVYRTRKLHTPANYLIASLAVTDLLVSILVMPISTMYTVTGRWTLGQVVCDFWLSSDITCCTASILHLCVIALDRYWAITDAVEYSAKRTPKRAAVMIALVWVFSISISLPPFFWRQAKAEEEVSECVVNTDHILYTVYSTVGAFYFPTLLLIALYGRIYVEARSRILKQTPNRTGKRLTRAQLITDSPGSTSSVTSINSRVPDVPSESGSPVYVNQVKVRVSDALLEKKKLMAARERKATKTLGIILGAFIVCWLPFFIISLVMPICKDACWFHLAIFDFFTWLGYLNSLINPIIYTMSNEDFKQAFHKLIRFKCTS

Mus musculus [17] = assay: Induction of whole-gut transit in mouse assessed as decrease in time for carmine red dye excretion administered orally via gavage measured for every 5 mins; format: functional, organism-based; conditions: dose 3-15 mg/kg, route po
[18] = target: 5-hydroxytryptamine receptor 2B (Homo sapiens, UniProt P41595); assay: Inhibition of 5-HT2BR (unknown origin)
Chain of 5-hydroxytryptamine receptor 2B (P41595 whole entry): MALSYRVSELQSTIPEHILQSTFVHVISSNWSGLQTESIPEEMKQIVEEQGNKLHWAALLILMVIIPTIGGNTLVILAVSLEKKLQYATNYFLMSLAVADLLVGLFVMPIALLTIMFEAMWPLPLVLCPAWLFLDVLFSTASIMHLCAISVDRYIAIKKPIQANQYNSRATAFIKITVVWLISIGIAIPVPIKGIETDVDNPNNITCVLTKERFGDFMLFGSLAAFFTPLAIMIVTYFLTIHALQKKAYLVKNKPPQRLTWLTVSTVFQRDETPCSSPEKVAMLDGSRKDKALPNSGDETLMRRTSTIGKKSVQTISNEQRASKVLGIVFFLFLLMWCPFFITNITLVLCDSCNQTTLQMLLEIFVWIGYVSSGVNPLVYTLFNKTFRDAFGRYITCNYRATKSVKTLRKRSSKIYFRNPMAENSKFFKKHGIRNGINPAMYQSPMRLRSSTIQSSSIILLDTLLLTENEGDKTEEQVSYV

[19] = target: T1, 5-hydroxytryptamine receptor 4; assay: Agonist activity at full-length human 5-HT4R stably expressed in HEK293 cells assessed as increase in intracellular cAMP level incubated for 30 mins under dark condition by reporter gene assay relative to control; format: functional, cell-based; conditions: filed as agonist
[20] = target: 5-hydroxytryptamine receptor 5A (Homo sapiens, UniProt P47898); assay: Inhibition of 5-HT5R (unknown origin)
Chain of 5-hydroxytryptamine receptor 5A (P47898 whole entry): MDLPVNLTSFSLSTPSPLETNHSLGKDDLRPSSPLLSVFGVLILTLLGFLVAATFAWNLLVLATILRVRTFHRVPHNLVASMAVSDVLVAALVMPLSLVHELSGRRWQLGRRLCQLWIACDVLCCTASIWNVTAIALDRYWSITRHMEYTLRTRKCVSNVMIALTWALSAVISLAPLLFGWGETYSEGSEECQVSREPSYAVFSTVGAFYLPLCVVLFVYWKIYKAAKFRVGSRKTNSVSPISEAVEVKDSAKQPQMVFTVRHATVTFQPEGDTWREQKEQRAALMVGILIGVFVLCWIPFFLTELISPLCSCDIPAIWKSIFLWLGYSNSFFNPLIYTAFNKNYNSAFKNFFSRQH

[21] = Cmax in fasted male C57BL/6J mouse at 10 mg/kg, po measured after 1 hr by LC-MS/MS analysis; format: ADME, organism-based; conditions: in vivo
[22] = Metabolic stability in mouse liver microsomes assessed as half life at 10 uM measured up to 60 mins in presence of NADPH by LC-MS/MS analysis; format: ADME, Microsome
[23] = Drug excretion in feces of fasted male Sprague-Dawley rat at 5 mg/kg, po measured for 24 hrs by LC-MS/MS analysis; format: ADME, organism-based; conditions: faeces, read-out: Drug excretion
[24] = Stability in SGF at pH 1.5 assessed as half life by LC-MS/MS analysis; format: physicochemical
Mus musculus [25] = assay: Anti-constipation effect in mouse assessed as increase in fecal output at 3 to 10 mg/kg, po measured after 1 hr; format: functional, organism-based; conditions: dose 3-10 mg/kg
[26] = Metabolic stability in human liver microsomes assessed as intrinsic clearance measured per mg protein at 10 uM measured up to 60 mins in presence of NADPH by LC-MS/MS analysis; format: ADME, Microsome; conditions: read-out: CLH
[27] = Apparent permeability coefficient of compound at 10 uM incubated for 4 hrs by PAMPA; format: ADME
[28] = target: 5-hydroxytryptamine receptor 6 (Homo sapiens, UniProt P50406); assay: Inhibition of 5-HT6R (unknown origin)
Chain of 5-hydroxytryptamine receptor 6 (P50406 whole entry): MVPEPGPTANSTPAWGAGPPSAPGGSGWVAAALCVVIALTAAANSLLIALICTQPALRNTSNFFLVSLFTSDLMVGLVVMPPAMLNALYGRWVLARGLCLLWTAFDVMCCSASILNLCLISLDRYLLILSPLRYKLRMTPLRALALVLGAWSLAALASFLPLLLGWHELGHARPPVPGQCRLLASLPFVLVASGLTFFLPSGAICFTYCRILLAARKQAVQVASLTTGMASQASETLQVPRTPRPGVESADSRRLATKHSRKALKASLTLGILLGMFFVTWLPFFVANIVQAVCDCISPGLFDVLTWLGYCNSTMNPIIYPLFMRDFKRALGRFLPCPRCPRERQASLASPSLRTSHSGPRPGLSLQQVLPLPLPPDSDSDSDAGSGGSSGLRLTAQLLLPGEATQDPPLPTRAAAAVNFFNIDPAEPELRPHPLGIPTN

Mus musculus [29] = assay: Anti-constipation effect in mouse assessed as decrease in bead expulsion time at 3 to 15 mg/kg, po pretreated with compound 1 hr prior to glass bead insertion into distal colon measured after regaining conscious; format: functional, organism-based; conditions: dose 3-15 mg/kg
[30] = Metabolic stability in rat liver microsomes assessed as half life at 10 uM measured up to 60 mins in presence of NADPH by LC-MS/MS analysis; format: ADME, Microsome
[31] = target: T3, 5-hydroxytryptamine receptor 2C (Homo sapiens, UniProt P28335); assay: Inhibition of 5-HT2CR (unknown origin)
T3 sequence (P28335 whole entry): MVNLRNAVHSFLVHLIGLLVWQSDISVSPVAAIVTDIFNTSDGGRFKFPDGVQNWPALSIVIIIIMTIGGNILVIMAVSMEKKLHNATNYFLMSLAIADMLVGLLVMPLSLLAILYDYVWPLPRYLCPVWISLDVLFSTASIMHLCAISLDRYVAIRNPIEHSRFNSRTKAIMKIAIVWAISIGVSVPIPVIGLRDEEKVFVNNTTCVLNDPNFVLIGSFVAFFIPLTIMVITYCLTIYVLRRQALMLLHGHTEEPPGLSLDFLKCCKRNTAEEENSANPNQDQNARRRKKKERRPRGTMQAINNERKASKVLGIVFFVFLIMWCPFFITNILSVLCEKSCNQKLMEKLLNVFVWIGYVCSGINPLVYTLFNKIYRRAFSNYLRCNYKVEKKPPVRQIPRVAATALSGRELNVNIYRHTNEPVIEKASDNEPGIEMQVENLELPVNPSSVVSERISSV

[32] = target: Serotonin 3 (5-HT3) receptor; assay: Inhibition of 5-HT3R (unknown origin); format: protein-complex assay, Homo sapiens

Q: Which dose excreted at 24 h [1] does the source give for `Nc1c(Cl)cc(C(=O)NCC2CCN(CCCCCC(=O)NCCOCCOCCNC(=O)NCCCCNC(=O)NCCOCCOCCNC(=O)CCCCCN3CCC(CNC(=O)c4cc(Cl)c(N)c5c4OCC5)CC3)CC2)c2c1CCO2` here?
A: ~100%

Q: And the EC50 [2]?
A: 0.00041 µM

Q: What about the microsomal CLint at 10 µM [3] of the same molecule?
A: 3 µL/min/mg

Q: And the IC50 [4]?
A: > 10 µM

Q: What about the half-life at 10 µM [5] of the same molecule?
A: 0.356 h

Q: What about the IC50 [6] of the same molecule?
A: > 10 µM

Q: What about the IC50 [7] of the same molecule?
A: > 100 µM

Q: What about the microsomal CLint at 10 µM [8] of the same molecule?
A: 5 µL/min/mg

Q: And the IC50 [9]?
A: 25.1 µM

Q: And the IC50 [10]?
A: > 1 µM

Q: And the recovery at 4 h, 10 µM [11]?
A: 83.1%

Q: What about the half-life [12] of the same molecule?
A: > 24 h

Q: What about the Ki [13] of the same molecule?
A: 0.0131 µM

Q: And the half-life [14]?
A: 3.06 h

Q: And the Activity (Mus musculus [15])?
A: Active; Efficacy Comparable To Prucalopride Succinate At 10 Mg/Kg

Q: And the IC50 [16]?
A: > 10 µM

Q: What about the Activity (Mus musculus [17]) of the same molecule?
A: Dose-dependent-effect; Superior To Prucalopride Succinate At 10 Mg/Kg

Q: And the IC50 [18]?
A: > 1 µM

Q: What about the Efficacy [19] of the same molecule?
A: 99.6%

Q: And the IC50 [20]?
A: > 10 µM

Q: And the Cmax [21]?
A: 8.5 ng/mL

Q: What about the half-life at 10 µM [22] of the same molecule?
A: 7.7 h

Q: And the dose excreted at 24 h [23]?
A: ~100%

Q: And the half-life [24]?
A: > 24 h

Q: And the Activity (Mus musculus [25])?
A: Active; Efficacy Comparable To Prucalopride Succinate At 10 Mg/Kg

Q: What about the microsomal CLint at 10 µM [26] of the same molecule?
A: 64.8 µL/min/mg

Q: What about the Papp at 4 h, 10 µM [27] of the same molecule?
A: 3.1 ×10⁻⁶ cm/s

Q: And the IC50 [28]?
A: > 1 µM

Q: And the Activity (Mus musculus [29])?
A: Active

Q: And the half-life at 10 µM [30]?
A: 4.62 h

Q: What about the IC50 [31] of the same molecule?
A: > 10 µM

Q: And the IC50 [32]?
A: > 10 µM
